Measured values from patent US12617779B2, “Self degradation-type CDK9 inhibitor prodrug and liposome encapsulating same” (Sumitomo Pharma Co., Ltd., priority 2021, dated 2026).

Experiment: Evaluation of conversion rate to active form in buffer solution (Experimental Example 1)
Type: physicochemical
Conditions: for Production rate of Alvocidib / Residual rate: 25 umol/L in buffer solution
Outline: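 Conversion to Alvocidib was followed by HPLC over 3 hours at 37° C, with test compounds at 25 umol/L in 50 mM citrate or phosphate buffers spanning pH 5.0–7.4.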

## CC(C)N(CC1CCCCN1)C(=O)Oc1cc(O)c2c(=O)cc(-c3ccccc3Cl)oc2c1[C@H]1CCN(C)C[C@H]1O (stereo partly drawn) [Example 10, 2-(2-chlorophenyl)-5-hydroxy-8-[(3S,4R)-3-hydroxy-1-methylpiperidin-4-yl]-4-oxo-4H-1-benzopyran-7-yl [(piperidin-2-yl)methyl]propan-2-ylcarbamate]
Buffer solution, 37° C.
  Efficiency of conversion to Alvocidib: higher efficiency
pH5.0, 0 hr, 37° C.
  Production rate of Alvocidib: 1.6%
  Residual rate: 90.6%
pH 5, 37° C., up to 2 or 3 hours
  Stability in buffer solution at pH 5: stable
pH5.0, 0.5 hr, 37° C.
  Production rate of Alvocidib: 2.1%
  Residual rate: 90.4%
pH5.0, 1 hr, 37° C.
  Production rate of Alvocidib: 2.5%
  Residual rate: 90.8%
pH5.0, 2 hr, 37° C.
  Production rate of Alvocidib: 3.1%
  Residual rate: 90.1%
pH5.0, 3 hr, 37° C.
  Production rate of Alvocidib: 3.9%
  Residual rate: 89.5%
pH5.5, 0 hr, 37° C.
  Production rate of Alvocidib: 1.6%
  Residual rate: 90.7%
pH5.5, 0.5 hr, 37° C.
  Production rate of Alvocidib: 2.7%
  Residual rate: 90.4%
pH5.5, 1 hr, 37° C.
  Production rate of Alvocidib: 3.6%
  Residual rate: 89.5%
pH5.5, 2 hr, 37° C.
  Production rate of Alvocidib: 5.4%
  Residual rate: 87.9%
pH5.5, 3 hr, 37° C.
  Production rate of Alvocidib: 7.2%
  Residual rate: 86.3%
pH6.0, 0 hr, 37° C.
  Production rate of Alvocidib: 1.7%
  Residual rate: 90.7%
pH6.0, 0.5 hr, 37° C.
  Production rate of Alvocidib: 4.9%
  Residual rate: 88.2%
pH6.0, 1 hr, 37° C.
  Production rate of Alvocidib: 8.1%
  Residual rate: 85.2%
pH6.0, 2 hr, 37° C.
  Production rate of Alvocidib: 14.1%
  Residual rate: 79.4%
pH6.0, 3 hr, 37° C.
  Production rate of Alvocidib: 19.8%
  Residual rate: 74.1%
pH6.5, 0 hr, 37° C.
  Production rate of Alvocidib: 1.9%
  Residual rate: 91.3%
pH6.5, 0.5 hr, 37° C.
  Production rate of Alvocidib: 10.8%
  Residual rate: 82.4%
pH6.5, 1 hr, 37° C.
  Production rate of Alvocidib: 19.4%
  Residual rate: 73.9%
pH6.5, 2 hr, 37° C.
  Production rate of Alvocidib: 34.6%
  Residual rate: 59.6%
pH6.5, 3 hr, 37° C.
  Production rate of Alvocidib: 46.2%
  Residual rate: 47.1%
pH7.0, 0 hr, 37° C.
  Production rate of Alvocidib: 2.2%
  Residual rate: 90.7%
pH7.0, 0.5 hr, 37° C.
  Production rate of Alvocidib: 22.8%
  Residual rate: 70.0%
pH7.0, 1 hr, 37° C.
  Production rate of Alvocidib: 40.0%
  Residual rate: 52.8%
pH7.0, 2 hr, 37° C.
  Production rate of Alvocidib: 63.6%
  Residual rate: 29.6%
pH7.0, 3 hr, 37° C.
  Production rate of Alvocidib: 76.4%
  Residual rate: 0.8%
pH7.4, 0 hr, 37° C.
  Production rate of Alvocidib: 3.1%
  Residual rate: 89.9%
pH 7.4, 37° C., up to 3 hours
  Conversion to Alvocidib at pH 7.4: rapidly converted to Alvocidib
pH7.4, 0.5 hr, 37° C.
  Production rate of Alvocidib: 46.1%
  Residual rate: 46.5%
pH7.4, 1 hr, 37° C.
  Production rate of Alvocidib: 71.5%
  Residual rate: 22.6%
pH7.4, 2 hr, 37° C.
  Production rate of Alvocidib: 87.2%
  Residual rate: 0.9%
pH7.4, 3 hr, 37° C.
  Production rate of Alvocidib: 91.6%
  Residual rate: 0.8%
